The record followed here is ChEMBL document CHEMBL1772936, “Synthesis and biological activity of novel N6-substituted and 2,N6-disubstituted adenine ribo- and 3'-C-methyl-ribonucleosides as antitumor agents” (Eur J Med Chem, 2011).

The structures appear in SMILES notation. pIC50: −log10 of the molar value.

The test system of assay [1] is K562. The assay is described as follows: Antiproliferative activity against human K562 cells after 72 hrs by MTS assay. It counts as functional. As to conditions: K562, 72 h.
The test system of assay [2] is MCF7. The assay is described as follows: Antiproliferative activity against human MCF7 cells after 72 hrs by MTS assay. Type of assay: functional. The note with it: MCF7, 72 h. (In general: Tetrazolium dyes change colour on reduction, which living cells bring about.)
Assay [3] deals with Caco-2. The assay is described as follows: Antiproliferative activity against human Caco2 cells after 72 hrs by MTS assay. It counts as functional. As to conditions: Caco-2, 72 h.
The test system of assay [4] is HeLa. The assay is described as follows: Antiproliferative activity against human HeLa cells after 72 hrs by MTS assay. It counts as functional.
Assay [5] relates to HT-29. Nature of the assay: Antiproliferative activity against human HT-29 cells after 72 hrs by MTS assay. As to conditions: HT-29, 72 h. It counts as functional.
In assay [6] the test system is K562. Nature of the assay: Antiproliferative activity against doxorubicin-sensitive human K562 cells after 72 hrs by MTS assay. Type of assay: functional. As to conditions: K562, 72 h, read-out: GI100.
In assay [7] the target is T1, Ribonucleoside-diphosphate reductase RR1 (Homo sapiens, UniProt P23921+P31350+Q7LG56).
T1 sequence (P23921 whole entry): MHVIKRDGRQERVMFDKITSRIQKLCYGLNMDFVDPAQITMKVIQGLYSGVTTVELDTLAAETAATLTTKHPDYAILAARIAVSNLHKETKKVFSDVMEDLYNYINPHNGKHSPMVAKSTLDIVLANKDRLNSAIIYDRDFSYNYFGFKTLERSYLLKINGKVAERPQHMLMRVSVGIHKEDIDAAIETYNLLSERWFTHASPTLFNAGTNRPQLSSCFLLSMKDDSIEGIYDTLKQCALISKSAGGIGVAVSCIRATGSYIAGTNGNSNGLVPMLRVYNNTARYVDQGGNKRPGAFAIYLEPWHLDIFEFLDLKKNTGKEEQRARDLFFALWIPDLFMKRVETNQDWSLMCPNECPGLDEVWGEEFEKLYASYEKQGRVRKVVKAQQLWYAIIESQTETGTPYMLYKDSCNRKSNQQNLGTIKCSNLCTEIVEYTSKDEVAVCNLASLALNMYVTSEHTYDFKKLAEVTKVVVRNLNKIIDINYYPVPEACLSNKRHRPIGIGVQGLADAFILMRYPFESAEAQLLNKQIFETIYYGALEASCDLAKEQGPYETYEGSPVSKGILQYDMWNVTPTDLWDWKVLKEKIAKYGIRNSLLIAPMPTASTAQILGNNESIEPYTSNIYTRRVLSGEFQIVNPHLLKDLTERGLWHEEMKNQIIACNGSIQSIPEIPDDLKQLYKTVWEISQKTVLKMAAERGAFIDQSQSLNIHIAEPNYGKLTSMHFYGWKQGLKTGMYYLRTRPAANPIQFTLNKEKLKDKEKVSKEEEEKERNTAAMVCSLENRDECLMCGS
T1 sequence (Q7LG56 whole entry): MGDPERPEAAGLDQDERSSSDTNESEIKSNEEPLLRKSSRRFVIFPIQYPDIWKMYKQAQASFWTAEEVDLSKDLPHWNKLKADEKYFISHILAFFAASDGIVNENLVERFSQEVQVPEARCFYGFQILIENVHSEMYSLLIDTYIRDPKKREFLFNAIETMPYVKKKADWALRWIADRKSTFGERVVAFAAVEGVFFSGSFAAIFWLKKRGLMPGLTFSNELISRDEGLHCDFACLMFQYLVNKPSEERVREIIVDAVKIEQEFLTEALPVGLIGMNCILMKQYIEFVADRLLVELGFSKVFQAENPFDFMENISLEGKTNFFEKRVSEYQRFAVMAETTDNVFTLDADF
T1 sequence (P31350 whole entry): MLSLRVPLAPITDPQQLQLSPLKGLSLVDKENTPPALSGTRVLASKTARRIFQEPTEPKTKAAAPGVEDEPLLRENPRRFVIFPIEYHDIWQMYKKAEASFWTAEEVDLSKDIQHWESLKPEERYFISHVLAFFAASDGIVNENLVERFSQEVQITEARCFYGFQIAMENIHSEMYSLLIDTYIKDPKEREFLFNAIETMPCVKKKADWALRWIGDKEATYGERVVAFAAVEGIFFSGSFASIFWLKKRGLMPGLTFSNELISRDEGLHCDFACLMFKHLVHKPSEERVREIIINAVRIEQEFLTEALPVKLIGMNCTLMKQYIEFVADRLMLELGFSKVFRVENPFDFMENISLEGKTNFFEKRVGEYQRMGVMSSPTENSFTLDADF
Nature of the assay: (§1) Inhibition of human recombinant ribonucleotide reductase M2/M1 expressed in Escherichia coli BL21 (DE3) after 30 mins by [3H]CDP reduction method.

Assay [8] concerns the target T2, Ribonucleoside-diphosphate reductase RR1 (Homo sapiens) (UniProt P23921+Q7LG56+P31350). The assay is described as §1.
In assay [9] the target is T1, Ribonucleoside-diphosphate reductase RR1. The assay is described as follows: (§2) Inhibition of human recombinant ribonucleotide reductase p53R2/M1 expressed in Escherichia coli BL21 (DE3) after 30 mins by [3H]CDP reduction method.
Assay [10] has as its target T2, Ribonucleoside-diphosphate reductase RR1 (Homo sapiens). Described as §2.

For orientation: GI50 means the concentration giving 50% growth inhibition. High values mean less potent growth inhibition, low ones more potent growth inhibition. On to `NNc1nc(NN)c2ncn([C@@H]3O[C@H](CO)[C@@H](O)[C@H]3O)c2n1`, for which the GI50 came to 30.7 µM in assay [1]; 20.7 µM in assay [2]; 18.8 µM in assay [3]; 7.9 µM in [4]; 61.4 µM in assay [5].
The like results for `CONc1ncnc2c1ncn2[C@@H]1O[C@H](CO)[C@@](C)(O)[C@H]1O` were, in that order, more than 100 µM, more than 100 µM, more than 100 µM, more than 100 µM and more than 100 µM.
The like results for `CON(C)c1ncnc2c1ncn2[C@@H]1O[C@H](CO)[C@@H](O)[C@H]1O` were, in that order, more than 100 µM, 46.8 µM, 84.1 µM, more than 100 µM and more than 100 µM.
The like results for `OC[C@H]1O[C@@H](n2cnc3/c(=N\O)[nH]cnc32)[C@H](O)[C@@H]1O` were, in that order, 31 µM, more than 100 µM, more than 100 µM, 3.4 µM and 15 µM.
Turning to `NNc1nc(Cl)nc2c1ncn2[C@@H]1O[C@H](CO)[C@@H](O)[C@H]1O`, the GI50 in assay [1] was 87.1 µM; in assay [2], 86.2 µM; in [3] it was more than 100 µM; in assay [4] it was 86 µM; in [5] it was 86.2 µM.
In the case of `C[C@@]1(O)[C@@H](CO)O[C@@H](n2cnc3c(N)ncnc32)[C@@H]1O`, the GI50 in assay [1] was determined as 9.4 µM; in [2] it was 22.4 µM; in [3] it was 24.3 µM; in [4], 23.3 µM; in [5], 26.1 µM.
As to `CO/N=c1/[nH]cnc2c1ncn2[C@@H]1O[C@H](CO)[C@@H](O)[C@H]1O`, the GI50 in assay [1], in assay [2], in assay [3], in assay [4] and in [5] was more than 100 µM throughout.
For `Nc1nc2c(ncn2[C@@H]2O[C@H](CO)[C@@H](O)[C@H]2O)/c(=N\O)[nH]1`, the GI50 in assay [1] is 99 µM; in assay [2], more than 100 µM; in assay [3] it was more than 100 µM; in [4], more than 100 µM; in [5], more than 100 µM.
As for `C[C@@]1(O)[C@@H](CO)O[C@@H](n2cnc3c(NN)nc(N)nc32)[C@@H]1O`, the GI50 is 91 µM in assay [1]; more than 100 µM in assay [2]; more than 100 µM in [3]; more than 100 µM in assay [4]; more than 100 µM in [5].
For `NNc1ncnc2c1ncn2[C@H]1C[C@H](O)[C@@H](CO)O1`, the GI50 in [1] is 12 µM; in assay [2], 7.9 µM; in [3], more than 100 µM; in assay [4] it was 16 µM; in assay [5], 18 µM.
For orientation: pIC50 means the IC50 on a negative log10 scale, so that one unit is a factor of ten. On to `NNc1ncnc2c1ncn2[C@@H]1O[C@H](CO)[C@@H](O)[C@H]1O`, for which the GI50 in assay [1] came out at 0.61 µM; in [2] it was 0.35 µM; in [3], 1.03 µM; in [4], 0.52 µM; in assay [5], 1.44 µM. In addition, the TGI came out at 2 µM in assay [6]; 6.1 µM in assay [2] (read-out: GI100); 5 µM in assay [3] (read-out: GI100); 5 µM in [4] (read-out: GI100); 8.2 µM in assay [5] (read-out: GI100). The pIC50 in assay [7] is 3.63; in assay [9], 3.61. Besides, the inhibition entry in [8] and in assay [10] was “Dose-dependent effect” in each case.
Turning to `CON(C)c1nc(N)nc2c1ncn2[C@@H]1O[C@H](CO)[C@@](C)(O)[C@H]1O`, the GI50 in assay [1], in assay [2], in [3], in [4] and in assay [5] was more than 100 µM throughout.
As to `C[C@@]1(O)[C@@H](CO)O[C@@H](n2cnc3c(NO)ncnc32)[C@@H]1O`, the GI50 in [1], in assay [2], in assay [3], in [4] and in assay [5] was more than 100 µM throughout.
As to `CO/N=c1/[nH]c(N)nc2c1ncn2[C@@H]1O[C@H](CO)[C@@H](O)[C@H]1O`, the GI50 in assay [1] is 49 µM; in [2] it was 58 µM; in assay [3], more than 100 µM; in assay [4] it was more than 100 µM; in assay [5], more than 100 µM.
On to `CONc1nc(N)nc2c1ncn2[C@@H]1O[C@H](CO)[C@@](C)(O)[C@H]1O`, for which the GI50 in [1], in assay [2], in assay [3], in assay [4] and in assay [5] was more than 100 µM in each case.
In the case of `C[C@@]1(O)[C@@H](CO)O[C@@H](n2cnc3c(NO)nc(N)nc32)[C@@H]1O`, the GI50 in [1] was 94 µM; in [2], more than 100 µM; in assay [3] it was more than 100 µM; in [4], more than 100 µM; in assay [5] it was more than 100 µM.
Consider `NNc1nc(N)nc2c1ncn2[C@@H]1O[C@H](CO)[C@@H](O)[C@H]1O`, for which the GI50 in [1], in assay [2], in assay [3], in assay [4] and in [5] was more than 100 µM in each case.
On to `C[C@@]1(O)[C@@H](CO)O[C@@H](n2cnc3c(NN)ncnc32)[C@@H]1O`, for which the GI50 in assay [1], in assay [2], in assay [3], in assay [4] and in assay [5] was more than 100 µM each time.
As for `CON(C)c1ncnc2c1ncn2[C@@H]1O[C@H](CO)[C@@](C)(O)[C@H]1O`, the GI50 in [1], in assay [2], in assay [3], in [4] and in assay [5] was more than 100 µM in each case.
